What all share (assay type): in vivo
The test system of experiment [1] is C57BL/6 mice. Put plainly: Number of autonomic activity of mice (YLS-1A autonomic activity recorder). Conditions: for Effect on autonomic activity of mice (in words): 10 mg/kg intragastric, one week, compared with the solvent control group; for Number of Autonomic activity (time): 10 mg/kg intragastric once daily, counted 30 min after administration at 6th day. On the procedure:
110 mice were randomly selected to observe the number of their autonomic activity. The mice was placed into the YLS-1A multi-functional mice autonomic activity recorder, and after 1 min of adaption, the mice's activity was counted within a time period from the end of 1st min to 4th min. 96 mice with the number of autonomic activity between 70˜140 were screened out, divided randomly into 8 groups, and intragastrically administrated with the drug compounds at a dose listed in Table 1, one time daily for 7 days consecutively. The solvent control group was administrated with 2% Tween-80 aqueous solution in the same volume. All mice were placed into the autonomic activity recorder 30 min after administration at 6th day. After 1 min of adaption, the mice's activity was counted within a time period from the end of 1st min to 4th min.
(§1) 130 mice were randomly selected to observe the number of their autonomic activity. The method was the same with that of Experiment 1. 108 mice with the number of autonomic activity between 70˜140 were screened out, divided randomly into 9 groups, and intragastrically administrated with the drug compounds at a dose listed in Table 2, one time daily for 7 days consecutively. The solvent control group was administrated with 2% Tween-80 aqueous solution in the same volume. 30 min after administration at 6th day, the number of the autonomic activity of each mouse was observed. 30 min after administration at 7th day, the immobility time in tail suspension test was observed. The method was the same with that in Experiment 1.

The test system of a further experiment is mice. Nature of the experiment: Anti-depression effect in the tested models (overall conclusion). Conditions: in the tested model at the tested dose. The source says: Based on the aforesaid experiments, the following conclusion can be drawn: • 1.
The test system of experiment [2] is C57BL/6 mice. Nature of the experiment: Depression model test of anti-blepharoptosis caused by reserpine (akinesia, blepharoptosis, shell temperature). Conditions: for Blepharoptosis, “out-of-circle” ratio and shell temperature after reserpine (effect in words) / Change in the shell temperature (T ° C.) / Degree of eye-closure / responders at 10 mg/kg / Change in the shell temperature (ΔT ° C.): 10 mg/kg intragastric 7 days; for Blepharoptosis, “out-of-circle” ratio and shell temperature after reserpine (effect in words): compared with the solvent control group; for Change in the shell temperature (T ° C.) / Degree of eye-closure / responders at 10 mg/kg / Change in the shell temperature (ΔT ° C.): reserpine 4 mg/kg i.p.; for Change in the shell temperature (T ° C.) / Change in the shell temperature (ΔT ° C.): abdomen, two hours after reserpine; for Change in the shell temperature (T ° C.) / Degree of eye-closure / Change in the shell temperature (ΔT ° C.): ±SD; for Degree of eye-closure: score 0-4 one hour after reserpine; for responders at 10 mg/kg: Mus musculus, po, 1 h, one hour after reserpine, 7.5 cm circle, 15-second observation, read-out: “out-of-circle” ratio; for “out-of-circle” ratio after reserpine compared with I-1 (in words): compared with I-1, p<0.05. On the procedure:
120 male C57BL/6 mice were randomly selected to observe the number of their autonomic activity. The mice was placed into the YLS-1A multi-functional mice autonomic activity recorder, and after 1 min of adaption, the activity of the mice was counted within a time period from the end of 1st min to 4th min. 96 mice with the number of autonomic activity between 70˜140 were screened out, divided randomly into 8 groups, and intragastrically administrated with the drug compounds at a dose listed in Table 3, one time daily for 7 days consecutively. The solvent control group was administrated with 2% Tween-80 aqueous solution in the same volume. Except the normal control group, 30 min after the last administration, each group was injected intraperitoneally with reserpine at a dose of 4 mg/kg. Next, akinesia, blepharoptosis and shell temperature were observed.
I Akinesia: one hour after intraperitoneal injection of reserpine, the mice were placed at the center of a circle with a diameter of 7.5 cm for a 15-second observation to calculate the “out-of-circle” ratio.
II Blepharoptosis: one hour after intraperitoneal injection of reserpine, the eye closure of mice was observed and scored by the following standard: eyelids open, 0; eyelids ¼ closed, 1; eyelids 2/4 closed, 2; eyelids ¾ closed, 3; eyelids closed completely, 4.
III Shell temperature: two hours after intraperitoneal injection of reserpine, the shell temperature of the abdomen of the mice was measured.
120 C57BL/6 mice were randomly selected to observe the number of their autonomic activity. The method was the same with that of Experiment 1. 100 mice with the number of autonomic activity between 70˜140 were screened out, divided randomly into 10 groups, and intragastrically administrated with the drug compounds at a dose listed in Table 4, one time daily for 7 days consecutively. The mice in the normal group and the solvent control group were administrated with 2% Tween-80 aqueous solution in the same volume. Except the normal control group, 30 min after the last administration, each group was injected intraperitoneally with reserpine at a dose of 4 mg/kg. Next, akinesia, blepharoptosis and shell temperature were observed. Observation method was the same with that of Experiment 1.

Experiment [3] deals with C57BL/6 mice. Nature of the experiment: "Acquired despair" depression model of tail suspension test in mice. Conditions: 10 mg/kg intragastric for 7 days; compared with the solvent control group. On the procedure:
30 min after administration at 7th day, the mice was fixed on a sustainer with a rubberized cloth at 1 cm close to the end of the tail of mice, making the mice hanged upside down. The head of the mice was about 30 cm above the table and its sight was separated from the neighboring mouse with a plate. Usually, the mice might manage to struggle in hopes of overcoming the abnormal body position. […] The accumulated immobility time within 6 min of each mouse was observed, which was regarded as “despair time”.
as §1

The subject of experiment [4] is C57BL/6 mice. Nature of the experiment: Forced swimming experiment in mice. To be noted: 10 mg/kg intragastric once daily for 7 days; 30 min after last administration; end of 2nd min to 6th min. On the procedure: After 1˜2 days of adaptive feed, 80 male C57BL/6 mice, aged 6˜8 weeks and weighing 18˜22 g, were placed into the YLS-1A multi-functional mice autonomic activity recorder. After 1 min of adaption, the activity of the mice was counted within a time period from the end of 1st min to 4th min. 60 mice with the number of autonomic activity between 70˜140 were screened out, divided randomly into 6 groups, and intragastrically administrated with the drug compounds at a dose listed in Table 5, one time daily for 7 days consecutively. The solvent control group was administrated with 2% Tween-80 aqueous solution in the same volume. After the administration at 6th day, the mice were placed into a cylindrical aquarium with a water depth of 10 cm and 25° C. to force the mice to swim. After 15 min, the mice were taken out, dried and returned to the cage. 24 hours later, 30 min after the last intragastrical administration, the mice were placed into a glass bottle with a diameter of 10 cm, a height of 30 cm and a water depth of 10 cm, and the temperature of the water in the bottle was at 25° C. The mice were separated with an opaque partition, so as not to influence each other. After 2 min of adaption, an accumulated immobility time from the end of 2nd min to 6th min was recorded.

The mark [5] stands for this setting: Experiment 1, end of 1st min to 4th min.

“Also recorded” adds a separate entry of the source. Where a name gives a salt, the structure may show the parent alone. Read-outs that look alike come from different tables or passages of the source. Marks after values point to notes of the source that are not given here.

Take `CC(C)CNC(=O)CCc1cc2c(c(C(F)(F)F)c1)OCO2` [Compound I-11, N-isobutyl-3-(5′-trifluoromethyl-3′,4′-methylenedioxyphenyl)-propionamide]: in the experiment on C57BL/6 mice [1], the “Effect on autonomic activity of mice (in words)” value is on record as “had no effect”. For the same molecule, the “Number of Autonomic activity (time)” value with C57BL/6 mice [1] (Experiment 2) is reported as 86.60 ± 23.08 time. In addition, in the experiment on mice, the “Anti-depression effect compared with the pharmacologic effect of I-1 (in words)” value is “increased to some degree”. Further, the “Blepharoptosis, “out-of-circle” ratio and shell temperature after reserpine (effect in words)” value in the experiment on C57BL/6 mice [2] is “remarkably improve; also recorded: antagonizing the decrease of shell temperature, akinesia and improving the degree of eye closure”. Besides, the “Blepharoptosis, shell temperature and “out-of-circle” ratio compared with Compound I-1 (in words)” value in the experiment with C57BL/6 mice [2] (10 mg/kg, compared with I-1, p<0.05, p<0.01) is listed as “significantly improved effect”. Moreover, in the experiment on C57BL/6 mice [2] (10 mg/kg, within the experiment), the “Improving akinesia, blepharoptosis and shell temperature: ranking among the tested compounds (in words)” value is listed as “better effects”. Further, in the experiment on C57BL/6 mice [2] (Experiment 2), the “Change in the shell temperature (T ° C.)” value worked out at 30.20 ± 0.95 °C, the Degree of eye-closure is reported as 1.40 ± 0.97 and the responders at 10 mg/kg is 50%. In addition, in the experiment on C57BL/6 mice [3], the “Effect on immobility time in tail suspension test (in words)” value is “reduce the immobility time of the mice in tail suspension test significantly; also recorded: significantly shorten the immobility time”.

Take `CC(C)CNC(=O)/C=C/c1cc(I)c2c(c1)OCO2` [Compound I-3, N-isobutyl-5′-iodo-3′,4′-methylenedioxy cinnamamide]: the “Number of Autonomic activity (time)” value in the experiment on C57BL/6 mice [1] (setting [5]) is reported as 94.42 ± 23.97 time. In addition, in the experiment with C57BL/6 mice [2], the “Blepharoptosis, “out-of-circle” ratio and shell temperature after reserpine (effect in words)” value is “improved significantly”. Besides, the “Degree of eye closure / blepharoptosis after reserpine compared with I-1 (in words)” value with C57BL/6 mice [2] (10 mg/kg, compared with I-1) is “reduced”. Further, in the experiment on C57BL/6 mice [2] (10 mg/kg), the ““out-of-circle” ratio after reserpine compared with I-1 (in words)” value (shortened to ““out-of-circle” ratio after reserpine”) is “increased markedly”. Also, in the experiment with C57BL/6 mice [2] (Experiment 1), the “Change in the shell temperature (ΔT ° C.)” value (“Change … (ΔT ° C.)” for short) is 1.72 ± 0.26 °C, the Degree of eye-closure is 1.00 ± 1.13**^ΔΔ and the responders at 10 mg/kg came to 92%.

Take `COc1cc(/C=C/C=C/C(=O)NCC(C)C)cc2c1OCO2` [Compound I-6, N-isobutyl-5-(5′-methoxy-3′,4′-methylenedioxyphenyl)pentadienamide]: the “Number of Autonomic activity (time)” value with C57BL/6 mice [1] (setting [5]) worked out at 98.83 ± 17.56 time. Also, the “Blepharoptosis, “out-of-circle” ratio and shell temperature after reserpine (effect in words)” value in the experiment on C57BL/6 mice [2] is on record as “improved significantly”. In the experiment on C57BL/6 mice [2] (10 mg/kg), the ““out-of-circle” ratio after reserpine” value was “increased markedly”. Also, in the experiment on C57BL/6 mice [2] (Experiment 1), the “Change … (ΔT ° C.)” value was 1.84 ± 0.22 °C, the Degree of eye-closure was determined as 2.08 ± 1.68 and the responders at 10 mg/kg was 67%.

As to `CNCCC(Oc1ccc(C(F)(F)F)cc1)c1ccccc1` (stereo not shown) [fluoxetine hydrochloride, Fluoxetine hydrochloride, reference compound], the “Immobility time in the forced swimming test in mice(s)” value with C57BL/6 mice [4] turned out to be 98.96 ± 32.43 s. In addition, the “Effect on autonomic activity of mice (in words)” value in the experiment with C57BL/6 mice [1] is listed as “had no effect”. For the same molecule, the “Number of Autonomic activity (time)” value with C57BL/6 mice [1] (setting [5]) was found to be 121.75 ± 24.14 time. Further, the “Number of Autonomic activity (time)” value in the experiment on C57BL/6 mice [1] (Experiment 2) was found to be 102.0 ± 14.91 time. Also, the “Blepharoptosis, “out-of-circle” ratio and shell temperature after reserpine (effect in words)” value with C57BL/6 mice [2] (hydrochloride) is “obviously increase mice “out-of-circle” ratio and shell temperature, and significantly reduce the degree of eye closure of the mice; also recorded: improve the “out-of-circle” ratio obviously, and significantly reduce the degree of eye closure and raise the shell temperature”. Moreover, in the experiment on C57BL/6 mice [2] (Experiment 1), the “Change … (ΔT ° C.)” value came out at 1.89 ± 0.21 °C, the Degree of eye-closure is recorded as 1.42 ± 1.38**Δ and the responders at 10 mg/kg worked out at 58%. In the experiment with C57BL/6 mice [2] (Experiment 2), the “Change in the shell temperature (T ° C.)” value is 29.20 ± 0.54 °C, the Degree of eye-closure worked out at 2.00 ± 1.33 and the responders at 10 mg/kg came to 50%. Moreover, in the experiment on C57BL/6 mice [3], the “Effect on immobility time in tail suspension test (in words)” value was “reduce the immobility time in tail suspension test significantly”.

In the case of `CC(C)CNC(=O)/C=C/c1cc2c(c([N+](=O)[O-])c1)OCO2` [Compound I-2, N-isobutyl-5′-nitro-3′,4′-methylenedioxy cinnamamide], in the experiment with C57BL/6 mice [1] (setting [5]), the “Number of Autonomic activity (time)” value is recorded as 102.00 ± 26.24 time. In addition, the “Blepharoptosis, “out-of-circle” ratio and shell temperature after reserpine (effect in words)” value with C57BL/6 mice [2] is “improved significantly”. Also, the ““out-of-circle” ratio after reserpine” value with C57BL/6 mice [2] (10 mg/kg) was “increased markedly”. Further, in the experiment with C57BL/6 mice [2] (Experiment 1), the “Change … (ΔT ° C.)” value was 1.60 ± 0.18 °C, the Degree of eye-closure is on record as 1.67 ± 1.30 and the responders at 10 mg/kg came out at 83%.

Turning to `CN(C)C(=O)/C=C/c1cc2c(c(C(F)(F)F)c1)OCO2` [Compound I-8, N,N-dimethyl-5′-trifluoromethyl-3′,4′-methylenedioxy cinnamamide], in the experiment with C57BL/6 mice [1] (Experiment 2), the “Number of Autonomic activity (time)” value was 84.00 ± 21.81 time. Besides, in the experiment with C57BL/6 mice [2], the “Blepharoptosis, “out-of-circle” ratio and shell temperature after reserpine (effect in words)” value was “remarkably improve; also recorded: antagonizing the decrease of shell temperature, akinesia and improving the degree of eye closure”. In the experiment on C57BL/6 mice [2] (Experiment 2), the “Change in the shell temperature (T ° C.)” value came to 27.60 ± 0.88 °C, the Degree of eye-closure is reported as 2.30 ± 1.64 and the responders at 10 mg/kg amounted to 40%.

For the origin of these results see patent US10071989B2, “Substituted cinnamamide derivative, preparation method and use thereof” (TASLY PHARMACEUTICAL GROUP CO., LTD., priority 2011, dated 2018).
